From patent US20060004086A1, “Method of reducing Abeta42 and treating diseases” (Mayo Foundation for Medical Education and Research, priority 2000, published 2006)
Entries after “also recorded” stand apart in the source; their conditions may differ. Like-named read-outs stand apart in the source and are kept apart here.

Legend:
[1] = system: Aβ42 secretion; test: Primary in vitro screen, CHO-APP695NL,I,his cells, end-specific Aβ40 and Aβ42 ELISAs; format: cell-based, Chinese hamster; details: for activity at 100 µM / activity at 10 µM: Cricetulus griseus, 6 h; for selective reduction of Aβ42 levels in the primary screen: 10 μM or 100 μM, classification on a 20% change
Protocol: Aβ40 and Aβ42 levels in culture supernatants were determined for each time points using ELISA.
In a primary screen, the effects of NSAIDs on Aβ42 secretion by a CHO cell line that expressed APP(CHO-APP695NL,I,his) were examined. Duplicate cell cultures were treated with (a) a vehicle, (b) 10 μM of NSAID, or (c) 100 μM of NSAID.
To determine Aβ40 and Aβ42 levels, six-hour culture supernatants taken from cells grown in a single well of a twenty-four-well plate were used in end-specific Aβ40 and Aβ42 ELISAs (Suzuki, et al. (1994) Sci 264:[…]). Aβ40 and Aβ42 levels of cultures treated with NSAID were compared with those of cultures treated with the vehicle alone. […] NSAIDs that caused either selective reduction of Aβ42 levels or reduction in both Aβ40 and Aβ42 levels are subjected to a secondary screen.

[2] = system: Aβ42 production; test: Aβ42 production in APP695-transfected H4 cells; format: cell-based, human
Protocol: In a tertiary screen, Aβ production, sAPP production, and toxicity in a human H4 neuroglioma cell line that expressed APP are examined for all FDA-approved NSAIDs and novel NSAIDs that selectively reduce Aβ42 levels. Three doses of each NSAID are tested. The first is a dose that is expected to cause maximum reduction of Aβ42 levels. The second dose is one that reduces Aβ42 levels by 50% of the maximum value, while the third dose is one that reduces Aβ42 levels by 10-20% of the maximum value.

[3] = plasma concentration of the drug; cited from earlier work
[4] = system: brain Aβ42 levels in Tg2576 mice; test: Acute oral dosing of three-month-old Tg2576 mice, brain Aβ ELISA; format: in vivo, mouse
Protocol: NSAIDs were dissolved in an appropriate vehicle. Dimethyl sulfoxide (DMSO), ethanol, and ethyl acetate are some examples. The NSAID solution was mixed with Kool-Aid and administered orally using a medicine dropper. […] At two hours after the final doses were administered, animals were sacrificed, and SDS soluble Aβ40 and Aβ42 were analyzed using ELISA.
Three month old mice have high levels of soluble Aβ in the brain but no Aβ deposition (see Hsiao et al. (1996) Science 274:99-102). […] Brain levels of SDS-soluble Aβ40 and Aβ42 were measured using ELISA.
Compounds were administered orally.

[5] = system: Aβ42 secretion; test: Non-selective and selective COX-inhibitors tested for effect on Aβ42 levels in cell cultures (Table 1 summary); format: cell-based; details: cell cultures, cell line and concentration not stated
Protocol: All measurements were performed in duplicate.
(§1) Aβ40 and Aβ42 levels in cell culture supernatants were analyzed using ELISA. Aβ42/Aβ40 ratios and total Aβ levels were normalized to values obtained from DMSO-treated cultures. […] NSAIDs were verified using NMR and mass spectrometry.

[6] = system: Aβ42 secretion; test: Aβ40/Aβ42 ELISA of culture supernatants, CHO cells expressing APP751; format: cell-based, Chinese hamster; details: CHO cells expressing APP751; concentrations up to 400 μM
Protocol: Cell cultures were maintained in standard cell culture media supplemented with 10% fetal bovine serum and 100 U/mL penicillin/streptomycin (Life Technologies Inc., Germany).
For analyses of Aβ secretion, APP processing, and notch cleavage, cells were cultured in serum-containing media and pretreated overnight with a specific NSAID. The next day, media were changed and cultures were treated with the same NSAID for another 24 hours.
Aβ was detected by sandwich enzyme-linked immunosorbent assay (ELISA) as described by Murphy et al. (2000) J Biol Chem 275:26277-84. Following NSAID treatment, culture supernatants were collected, and cell debris was removed by centrifugation. Complete protease inhibitor cocktail (Roche Molecular Biochemicals, IN, USA) was added to the media and Aβ40 and Aβ42 levels were quantified using end-specific Aβ ELISAs. All measurements were performed in duplicate.
The effect of sulindac sulfone on Aβ42 secretion was examined. Sulindac sulfone is an oxidation product of the pro-drug sulindac. […] Cell cultures were treated with increasing concentrations of sulindac sulfone. Aβ40 and Aβ42 levels in culture supernatants were analyzed using ELISA.
as §1

[7] = six-hour culture supernatants, read-out: % Control % Aβ42
[8] = six-hour culture supernatants, read-out: % Control Aβ40
[9] = six-hour culture supernatants, read-out: % Control Aβ42
[10] = 10 μM, six-hour culture supernatants
[11] = 10 μM, six-hour culture supernatants, read-out: % Control % Aβ42
[12] = 10 μM, six-hour culture supernatants, read-out: % Control Aβ40
[13] = 10 μM, six-hour culture supernatants, read-out: % Control Aβ42
[14] = Tg2576 mice, three month-old, 50 mg/kg/day orally for three days, SDS-soluble, mean ± SD
[15] = Tg2576 mice, treatment for three days, 50 mg/kg/day
[16] = concentration not given, six-hour culture supernatants

Molecule CC(C(=O)O)c1ccc(C(=O)c2cccs2)cc1 (stereo not drawn) [Suprofen] has an activity at 100 µM [1, 7] of 102%, an activity at 100 µM [1, 8] of 126% and an activity at 100 µM [1, 9] of 129%.

Work on O=C(O)CCC(=O)c1ccc(-c2ccccc2)cc1 [Fenbufen] yielded an activity at 100 µM [1, 7] of 107%, an activity at 100 µM [1, 8] of 100% and an activity at 100 µM [1, 9] of 109%.

With CCCCC#CCSc1ccccc1OC(C)=O [APHS] the “% Control % Aβ42” value [1, 10] was 178%, the “% Control Aβ40” value [1, 10] was 50% and the “% Control Aβ42” value [1, 10] was 114%.

For C[C@H](C(=O)O)c1ccc(-c2ccccc2)c(F)c1 [S-flurbiprofen], the “levels of Aβ40 production” value [2] was “not altered” and the “Aβ42 levels lowered by” value ([2]; 100 μM) was 58%.

Work on Oc1ccc(C=Cc2cc(O)cc(O)c2)cc1 [Resveratrol] yielded an activity at 10 µM [1, 11] of 130%, an activity at 10 µM [1, 12] of 75% and an activity at 10 µM [1, 13] of 107%.

In the case of Cc1ccc(-c2cc(C(F)(F)F)nn2-c2ccc(S(N)(=O)=O)cc2)cc1 [Celecoxib, celecoxib], the Plasma [3] is given as 0.015 µM.

For CN1C(C(=O)Nc2ccccn2)=C(O)c2sccc2S1(=O)=O [Tenoxicam], the activity at 100 µM [1, 7] was 112%, the activity at 100 µM [1, 8] was 80% and the activity at 100 µM [1, 9] was 92%.

In the case of Cc1ccc(Cl)c(Nc2ccccc2C(=O)O)c1Cl [Meclofenamic acid, meclofenamic acid], the “Brain levels of Aβ40” value [4, 14] is reported as 2932 ± 289 fmol/gm, the “Brain levels of Aβ42” value [4, 14] is reported as 679 ± 343 fmol/gm and the “% Aβ42 in brain” value ([4]; Tg2576 mice, three month-old, 50 mg/kg/day orally for three days, mean ± SD) is reported as 18.6 ± 8.7 %. For the same molecule, the “Aβ40 levels in the brain” value [4, 15] was “no change”, the “reduction in Aβ42 levels in the brain” value [4, 15] was “approximately 30%” and the “selective reduction of Aβ42 levels in the primary screen” value [1] was “selectively reduced Aβ42 levels”. For the same molecule, the “selective reduction of Aβ42, time course” value ([1]; CHO-APP695NL,I,his cells treated for six, twelve, or twenty-four hours) was “detectable at six hours”, the activity at 10 µM [1, 11] was 37% and the activity at 10 µM [1, 12] was 39%. The activity at 10 µM [1, 13] was 13%.

For O=C(O)Cc1ccccc1Nc1c(Cl)cccc1Cl [Diclofenac], the “total Aβ levels” value [5] was “did not affect”, the activity at 100 µM [1, 7] was 100% and the activity at 100 µM [1, 8] was 88%. For the same molecule, the activity at 100 µM [1, 9] was 87% and the Plasma [3] was 6.1 µM.

In the case of C[C@@H](C(=O)O)c1ccc(-c2ccccc2)c(F)c1 [R-flurbiprofen, (2R)-2-(2-Fluoro-1,1′-biphenyl-4-yl)propanoic acid], the “brain Aβ42 levels” value ([4]; three-month old Tg2576 mice, 100 mg/kg/day orally for three days, compared with vehicle, 100 mg/kg/day) is reported as “more effective at lowering brain Aβ42 in this acute dosing paradigm than S-flurbiprofen; also recorded: lower Aβ42 levels”, the “levels of Aβ40 production” value [2] is reported as “not altered” and the “Aβ42 levels lowered by” value ([2]; 10 μM) is reported as 20%. For the same molecule, the “Aβ42 levels lowered by” value ([2]; 100 μM) was 49%.

CC(C(=O)O)c1cccc(Oc2ccccc2)c1 (stereo not drawn) [Fenoprofen, fenoprofen] gave an activity at 100 µM [1, 7] of 63%, an activity at 100 µM [1, 8] of 102% and an activity at 100 µM [1, 9] of 60%.

For CC(C(=O)O)c1ccc(-c2ccccc2)c(F)c1 (racemic) [Flurbiprofen, flurbiprofen], the “levels of Aβ40 production” value [2] was “not altered” and the “Aβ42 levels lowered by” value ([2]; 100 μM) was 50%.

With Cc1cccc(Nc2ccccc2C(=O)O)c1C [Mefenamic Acid, mefenamic acid] the “selective reduction of Aβ42 levels in the primary screen” value [1] was “selectively reduced Aβ42 levels”, the activity at 100 µM [1, 7] was 72% and the activity at 100 µM [1, 8] was 116%. For the same molecule, the activity at 100 µM [1, 9] was 78%.

For COc1ccc(-n2nc(C(F)(F)F)cc2-c2ccc(Cl)cc2)cc1 [SC560], the activity at 10 µM ([1]; read-out: % Control % Aβ42) was 227%, the activity at 10 µM ([1]; read-out: % Control Aβ40) was 47% and the activity at 10 µM ([1]; read-out: % Control Aβ42) was 166%.

With CC1=C(CC(=O)O)c2cc(F)ccc2/C1=C\c1ccc(S(C)(=O)=O)cc1 [Sulindac Sulfone, sulindac sulfone] the Aβ42/Aβ40 ratios [6] was “no changes in Aβ42/Aβ40 ratios were observed”, the “% Control % Aβ42” value [1, 16] was 92% and the “% Control Aβ40” value [1, 16] was 109%. For the same molecule, the “% Control Aβ42” value [1, 16] was 97%.

For COc1ccc2cc([C@H](C)C(=O)O)ccc2c1 [Naproxen, naproxen], the “total Aβ levels” value [6] was “did not affect total Aβ levels”, the activity at 100 µM [1, 7] was 104% and the activity at 100 µM [1, 8] was 107%. The activity at 100 µM [1, 9] was 112%.
